Assay results taken from patent publication US7897401B2, “Control of apoptosis by controlling the propensity of ceramide channel formation” (University of Maryland, College Park, priority 2005, dated 2011).

Tests used:
Assay type in all cases: biochemical
[1] = system: C16-ceramide channels in the MOM of yeast mitochondria; assay: Complex IV accessibility assay, isolated yeast mitochondria
Protocol: The ability of the naturally-occurring C16-ceramide to form channels in the mitochondrial outer membranes of isolated yeast mitochondria was assessed via the complex IV accessibility assay. This assay measures the bidirectional flux of cytochrome c across the mitochondrial outer membrane (MOM) by monitoring its oxidation by complex IV of the mitochondrial inner membrane electron transport chain. The initial rate of cytochrome c oxidation when expressed as a percent of the rate measured in mitochondria with damaged outer membranes is a good measure of the permeability of the MOM to proapoptotic proteins. This method has an advantage over simply looking for the release of cytochrome c because both channel prevention and reversal by a potential inhibitor can be evaluated.
Thus, mitochondria are isolated from wild type yeast and yeast strains expressing either human Bcl-2 or Bcl-xL according to previously published methods (Lee, A. et al. (1998) “THE ROLE OF YEAST VDAC GENES ON THE PERMEABILITY OF THE MITOCHONDRIAL OUTER MEMBRANE,” J. Membr. Biol. 161:173-181). Isolated yeast mitochondria are incubated with the naturally occurring C16-ceramide and its ability to form channels is evaluated according to the complex IV accessibility assay (Siskind, L. J. et al. (2002) “CERAMIDE CHANNELS INCREASE THE PERMEABILITY OF THE MITOCHONDRIAL OUTER MEMBRANE To SMALL PROTEINS,” J. Biol. Chem. 277:26796-26803). This assay measures the CN-sensitive oxidation of exogenously-added reduced cytochrome c by cytochrome c oxidase of the inner membrane. It measures the permeability of the mitochondrial outer membrane (MOM) to cytochrome c. […] Mitochondria are incubated with test agents (e.g., C16-ceramide) for a predetermined period of time (e.g., 5-20 minutes), reduced cytochrome c is added and the absorbance is monitored at 550 nm. […]
The complex IV accessibility measures of the permeability of the MOM. The initial rate is expressed as a percentage of the rate of cytochrome c oxidation in mitochondria whose outer membranes are ruptured by hypotonic shock. […]

[2] = system: ceramide channels in the mitochondrial outer membrane (MOM); assay: Adenylate kinase release assay in isolated rat liver mitochondria; conditions: for effect of preincubation on C16-ceramide permeabilization of the MOM and adenylate kinase release: 5 min preincubation, C16-ceramide 40 μg/mL, 10 min, low concentration potentiates, higher inhibits
Protocol: The preparation yielded a mitochondrial suspension containing 10 mg of protein per mL. […] The mitochondria were then pelleted at 14,000 g for 5 min at 4° C. and the supernatant was kept on ice until assayed. […] The enzymes were added to the rest of the reaction mixture 1 min before the addition of the mitochondrial supernatant to allow a trace of ATP to be consumed. The activity of adenylate kinase was detected as an increase in absorbance at 340 nm. Since the activity of the kinase decays with time, even on ice, experiments were performed in sets and the activity of the first supernatant was assayed again at the end of the set. The values were fitted to a first order decay and all values within the set were corrected for the decay of the activity, based on the time delay before assay.
To determine the effect of sphingosine pretreatment on ceramide permeabilization of the mitochondrial outer membrane, mitochondria were incubated at room temperature in the presence of varying concentrations of sphingosine for […] before addition of ceramide and incubation for 10 min. Untreated mitochondria and mitochondria hypotonically lysed (20 μl into 1.2 ml water) served as negative and positive controls, respectively.
Experiments with C16-ceramide were performed in a similar way except as follows. The mitochondria were suspended in the above medium except that the 1 mM Tris buffer was replaced by 5 mM HEPES. To 1.0 mL of this medium at room temperature (RT) was added 17 μL of mitochondrial suspension that had been kept on ice at a concentration of 4 mg/mL. The final mitochondrial protein concentration during the experiment was 80 μg/mL. In the case of shocked mitochondria, the 1.0 mL of medium was replaced by water. Sphingosine was added, where appropriate, from a 0.25 mg/mL solution in DMSO. Typically 4-7 incubations were run in parallel. All samples were incubated for 5 min at RT. Then some samples received 0.4 mL of fatty acid depleted bovine serum albumin (BSA), 25 mg/mL, followed immediately by 20 μL of C16-ceramide dissolved in isopropanol at 2 mg/mL. After a 10-min incubation at RT, 10 μL of 4 mM PMSF was added followed by centrifugation. In these experiments 0.3 mL of mitochondrial supernatant was added to the adenylate kinase reaction mixture.

[3] = Ability of sphingolipids to form channels in membranes
Source text: The present invention establishes that sphingosine is capable of directly disassembling ceramide channels, thus proving the existence of this novel anti-apoptotic regulatory step. The ability of sphingosine, sphingosine-1-phosphate ([…]) and ceramide-1-phosphate the ability to form channels was investigated.

For `CCCCCCCCCCCCC/C=C/[C@@H](O)[C@H](CO)NC(=O)CCCCCCCCCCCCCCC` [C16-ceramide], the “channel formation in the MOM of isolated wild-type yeast mitochondria” value ([1]; 10 min incubation, FIG. 13A) was “forms channels”.

In the case of `CCCCCCCCCCCCC/C=C/[C@H](O)[C@@H](N)CO` [L-threo sphingosine], the “permeabilization of the MOM to adenylate kinase after removal of excess compound with BSA” value ([2]; 2.4 μg/mL for 5 min, then fatty acid depleted BSA, no ceramide added) is reported as “no penneabilization of the MOM to adenylate kinase was observed”, the “effect of preincubation on C16-ceramide permeabilization of the MOM and adenylate kinase release” value [2] is reported as “same biphasic effect” and the “effect of preincubation on C16-ceramide permeabilization of the MOM and adenylate kinase release” value ([2]; listed as L-sphingosine) is reported as “same results as D-sphingosine”.

For `CCCCCCCCCCCCC/C=C/[C@@H](O)[C@@H](N)COP(=O)(O)O` [S-1-P, sphingosine-1-phosphate], the “ability to form channels” value [3] was “destabilized membranes”.

For “Bcl-2: full-length human Bcl-2 expressed in yeast cells”, the “sensitivity to C16-ceramide channel formation of mitochondria from yeast expressing the protein” value ([1]; full-length human Bcl-2 expressed in yeast vs empty vector control) was “resistant to C16-ceramide channel formation”.

For ceramide-1-phosphate [C-1-P], the “ability to form channels” value [3] was “without reproducible effect”.
